{"source": "patent US20250295656A1", "about": "“COMBINATION OF LURBINECTEDIN AND IMMUNE CHECKPOINT INHIBITORS” (priority 2020, published 2025)", "assay_type_in_all_cases": "cell-based, human", "key": {"[1]": {"test_system": "U2OS cells stably expressing CALR-GFP", "experiment": "CALR-GFP granularity (surrogate marker of CALR exposure)", "details": "lurbinectedin 1 nM to 1 μM, MTX 1 and 3 μM, 4-32 hours, vs untreated controls", "procedure": "(§1) (a) Human osteosarcoma U2OS (a), human breast cancer HCC70 (b) human colon cancer HT29 cells (c) and murine methylcholantrene-induced fibrosarcoma MCA205 cells (d) were treated with lurbinectedin (Lurbi, 1 nM, 10 nM, 100 nM and 1 μM) for the indicated times. Subsequently, the cells were stained with 1 μM Hoechst 33342 and 1 μM propidium iodide and assessed for the loss of viability by automated image acquisition. Images were segmented, cellular debris was excluded and the number of cells with normal nuclear morphology was enumerated. Cells stably expressing CALR-GFP were treated as above. Following the cells were fixed with 3.7% of PFA, stained with 1 μM Hoechst 33342 and assessed by automated image acquisition. Images were segmented, cellular debris was excluded and CALR-GFP granularity (a surrogate marker of CALR exposure) was evaluated in the cytoplasmic region of cells with normal nuclear morphology. Wild type cells were treated as above and then assessed for cytoplasmic quinacrine granularity (after staining with the ATP-sensitive dye quinacrine together with Hoechst 33342) by automated image acquisition, segmentation and analysis. Cells stably expressing HMGB1-GFP were treated as above and then assessed for nuclear HMGB1-GFP fluorescence intensity. The cells were fixed and stained with Hoechst 33342 and images were acquired, segmented and analyzed. […]"}, "[2]": {"test_system": "U2OS biosensor cells expressing GFP under the MX1 promoter", "experiment": "Type I IFN response (MX1-GFP biosensor cells treated with supernatant)", "details": "supernatant of treated U2OS cells after 48 hours fresh media; biosensor cells 48 hours; throughout all time points", "procedure": "In a systematic screening campaign, the capacity of lurbinectedin to induce immunogenic cell death in cancer cells was assessed in human osteosarcoma U2OS cells stably expressing fluorescent biosensors for the detection of CALR-relocation (as a surrogate marker for CALR surface exposure), HMGB1 release and Type I IFN responses together with U2OS WT cells stained with the ATP-sensitive dye quinacrine. […] The induction of cell death was evaluated based on changes in the nuclear morphology visualized by means of the DNA intercalating dye Hoechst 33342."}, "U2OS WT cells": {"test_system": "U2OS WT cells", "experiment": "Cytoplasmic quinacrine granularity (intracellular ATP, indicator of ATP release)", "details": "lurbinectedin 1 nM to 1 μM, MTX 1 and 3 μM, dose-dependent, decreased over time, vs untreated controls", "procedure": "as §1"}, "[3]": {"test_system": "U2OS cells stably expressing HMGB1-GFP", "experiment": "HMGB1 release (loss of nuclear HMGB1-GFP fluorescence)", "details": "lurbinectedin 1 nM to 1 μM, MTX 1 and 3 μM, medium to late time points", "procedure": "as §1"}}}
{"smiles": "O=C1c2c(O)ccc(O)c2C(=O)c2c(NCCNCCO)ccc(NCCNCCO)c21", "note": "[MTX, mitoxantrone]", "values": [{"measurement": "CALR-granularity", "setting": "[1]", "value": "time- and dose-dependent increase"}, {"measurement": "de novo GFP signal intensity (type 1 IFN response)", "setting": "[2]", "value": "significant increase"}, {"measurement": "ATP signal (cytoplasmic quinacrine granularity)", "setting": "U2OS WT cells", "value": "significant decrease"}, {"measurement": "nuclear GFP signal (HMGB1-GFP)", "setting": "[3]", "value": "significant decrease"}]}
